Test results reported in ChEMBL document CHEMBL1149863, “Phenolic glycosides from berries of Pimenta dioica” (J Nat Prod, 2008).

Test: DPPH radical scavenging activity after 180 mins
Format: functional

Compound	IC50 [µM]
O=C(O)C[C@H]1CCC(=O)[C@@H]1C/C=C\CCO[C@@H]1O[C@H](COC(=O)c2cc(O)c(O)c(O)c2)[C@@H](O)[C@H](O)[C@H]1O	11.2
CC1=CC[C@@H](C(C)(C)O[C@@H]2O[C@H](CO[C@@H]3O[C@@H](CO)[C@H](O)[C@H]3OC(=O)c3cc(O)c(O)c(O)c3)[C@@H](O)[C@H](O)[C@H]2O)CC1	10.5
CC1=CC[C@H](C(C)(C)O[C@@H]2O[C@H](CO[C@@H]3O[C@@H](CO)[C@H](O)[C@H]3OC(=O)c3cc(O)c(O)c(O)c3)[C@@H](O)[C@H](O)[C@H]2O)CC1	11.6
O=C(O)c1cc(O)c(O)c(O)c1 [GALLIC ACID]	8

Next, values leading:

IC50 [µM]	Compound
25.7	COc1cc(/C=C/C(=O)O)cc(OC)c1O [SINAPINATE]
27.5	C=CCc1ccc(O)c(OC)c1 [EUGENOL]
15	C=CCc1cc(OC)c(O)c(O[C@@H]2O[C@H](COC(=O)/C=C/c3cc(OC)c(O)c(OC)c3)[C@@H](O)[C@H](O)[C@H]2O)c1
